How the values were obtained:
[1] = tested on: mouse choroidal explants; test: Mouse choroidal explant assay (ex vivo sprouting); format: cell-based; settings: LIF 10 ng/ml, compared with control
Procedure: In a 48-well plate, 60 μL of growth factor-reduced basement membrane extract (GFR-BME) (Corning, CAT #354230) was added to each well and allowed to solidify at 37° C. for 20 minutes. A dice of the peripheral choroid-scleral complex (approximately 1 mm×1 mm), dissected from male C57BL/6J mice (age P20), was added to the center of each well as previously described (23). A top layer of 60 μL GFR-BME was added to each well, followed by incubation at 37° C. for 30 minutes. Upon adding 500 μL of endothelial cell growth basal medium EBM-2 (Lonza, CAT #CC3156) supplemented with 2% FBS and antibiotics, endogenous VEGF activity of choroid explants was blunted by 5 μg/ml of anti-VEGF Mab B20-4.1.1. After 90 minutes of incubation with the antibody, 10 ng/ml of LIF or PBS control was added in the test wells. Tissues were incubated in standard cell culture conditions with 5% CO2 and fresh media were changed every 48 hours. Phase contrast Z-stack images of each explants were taken on day 5 using a Keyence microscope. Vessel sprouting areas were quantified using ImageJ software. The experiment was repeated three times and data were obtained by analyzing 5 replicates per each condition each time.

[2] = tested on: mouse retina; test: Measurement of vascular leakage in retina (TRITC-dextran); format: in vivo; settings: mice, LIF 10 ng intravitreally
Procedure: Recombinant human VEGF (100 ng) or LIF (10 ng) was injected into the vitreous (0.1% BSA PBS solution as vehicle control). TRITC-dextran (50 mg/ml, 100 ul) was then injected into the tail vein. Ten minute later, animals were sacrificed and eyes were enucleated. Retina flat mount was imaged under microscope (65).

[3] = tested on: phosphorylation of STAT3, ERK and AKT in BAE cells; test: Western blotting of LIF signaling in BAE cells; format: cell-based, bovine; settings: LIF treatment for 15 minutes
Procedure: BCE and BAE cells were cultured in growth medium overnight. Growth medium was removed and then cells were washed twice with PBS. Recombinant human LIF was added to cells for 15 minutes, following 3-hour incubation in the following medium: DMEM-low glucose supplemented with 10% BCS, 2 mM glutamine and antibiotics for BCE cells, and DMEM-low glucose supplemented with 1% BCS and antibiotics for BAE cells. […] Cells were then lysed with RIPA lysis buffer (Life Technologies, CAT #89901) plus protease and phosphatase inhibitor cocktail (ThermoFisher Scientific CAT #78440). Protein concentrations in cell lysates were measured with the BCA assay (ThermoFisher Scientific CAT #23227). Equal amount of proteins were subjected to electrophoresis in NuPAGE 4-12% Bis-Tris gels (ThermoFisher Scientific, CAT #NW04125BOX) and then transferred onto PVDF membranes. Membranes were blocked with 5% non-fat milk in TBST at room temperature for 1 hour, incubated with primary antibodies indicated below in TBST containing 0.5% non-fat milk at 4° C. overnight then with secondary HRP-conjugated antibodies (1:2000, GE Healthcare) at room temperature for 1 h. Signals were developed with SuperSignal™ West Pico PLUS Chemiluminescent Substrate (ThermoFisher Scientific). Primary antibodies used: anti-phospho-STAT3 (Cell Signaling, CAT #9131, 1:3000), anti-STAT3 (Cell Signaling, CAT #4904, 1:3000), anti-phospho-ERK (Cell Signaling, CAT #4376, 1:5000), anti-ERK (Cell Signaling, CAT #4695, 1:5000), anti-phospho-AKT Ser473 (Cell Signaling, CAT #4060, 1:2000), anti-AKT (Cell Signaling, CAT #4691, 1:2000) and HRP-conjugated anti-beta-actin (Sigma, CAT #AC-15, 1; 10000).

[4] = tested on: bovine retinal endothelial (BRE) cells; test: BRE endothelial cell proliferation assay (alamar blue); format: cell-based
Procedure: The bovine endothelial proliferation assays were performed essentially as previously described (63, 64). BCE (1×10^3 cells/well) or BRE (5×10^2 cells/well) cells were seeded in 96-well plates in the culture medium (DMEM-low glucose supplemented with 10% BCS, 2 mM glutamine and antibiotics) plus testing materials with a total volume of 200 μl per well. BAE cells were plated in 96-well plates at a density of 2×10^3 cells in the culture medium (DMEM-low glucose supplemented with 1% BCS and antibiotics) plus testing material with a total volume of 200 μl per well. HRME cells were seeded at a density of 1×10^3 cells/well in gelatin-coated 96-well plates in assay medium (DMEM-low glucose supplemented with 20% FBS and antibiotics) plus testing materials to make a total volume 200 μl per well. For assays involving antibodies or small-molecule inhibitors, inhibitors or vehicle controls were first added and then test materials were added one hour later. After 6 days (unless otherwise specified), cells were incubated with alamar blue for 4 h. Fluorescence was measured at 530 nm excitation wavelength and 590 nm emission wavelength. Each experiment was carried out in duplicate/triplicate and repeated at least three times.

[5] = tested on: BCE cells; test: Gene expression in LIF-treated BCE cells (RNA-seq, qRT-PCR); format: cell-based, bovine
Procedure: BCE and BAE cells, after the indicated treatments, were lysed with Trizol reagent (Invitrogen, CAT #15596026) and subjected to RNA extraction following manufacturer's instructions. RNA concentrations were determined with Nanodrop 2000 (ThermoFisher Scientific) and 1 μg of total RNAs were reverse-transcribed to cDNAs using the High-Capacity cDNA Reverse Transcription Kit (Applied Biosystems, CAT #4368814). Equal amounts (generally 10 ng/reaction) of cDNAs were subjected to qRT-PCR analyses using the TaqMan Fast Advanced Master Mix (Applied Biosystems, CAT #4444557) and the ViiA7 Real-time PCR system. Relative mRNA levels of the examined genes were normalized to the internal control RPLP0 (Ribosomal Protein Lateral Stalk Subunit P0), determined by comparing with control sample group, and reported as fold changes. TaqMan gene expression assay probes were used: bovine RPLP0 (Bt03218086_ml), bovine STAT3 (Bt03259865_ml), bovine CTSL1 (Bt03257307_ml and Bt03257309_ml), bovine CTSB (Bt03259161_ml), bovine MYC (Bt03260377_ml), bovine JunB (Bt03246919_s1), bovine CCNA2 (Bt03240503_g1), bovine CCNB1 (Bt03237853_g1), and bovine PIM1 (Bt03212957_ml). The experiment was carried out in triplicate and repeated three times.

## LIF: recombinant human leukemia inhibitory factor, a member of the IL-6 family of cytokines
[1]
  microvascular outgrowth from the choroidal explant into the matrigel: significantly enhanced
[2]
  retinal microvascular leakage: does not induce retinal microvascular leakage
[3]
  phosphorylation of AKT: led to phosphorylation
  phosphorylation of ERK (MAPK): led to phosphorylation
  phosphorylation of STAT3: led to phosphorylation
[4]
  mitogenic activity on BRE cells: exerted mitogenic activity
[5]; BCE cells incubated with LIF for 6 hours, RNA-seq
  upregulation of IGFBP3: not in BCE cells
[5]; BCE cells, LIF treatment
  MYC expression: upregulation
[5]; BCE cells, vehicle or LIF, qRT-PCR
  cathepsin L mRNA (CTSL) levels: not detectable
